Assay [1] deals with TBA (DNA, G4) GGTTGGTGTGGTTGG
Put plainly: CD melting. As to conditions: 50 mM K+; 10 mM Tris-HCl pH 7.4; 5 µM DNA, 20 µM compound.

The subject of assay [2] is TTA45. Put plainly: FRET melting assay, stabilization of TTA45. Format: binding, human. The following applies: 0.5 µM TTA45, 10 mM K2HPO4/KH2PO4, 100 mM KCl, pH 7.0. Here is the method: Based on the conventional G-quadruplex ligand design ([46]), ∼400 compounds were selected from Chinese National Compound library of Peking University (PKU-CNCL). These compounds were evaluated for their ability to bind to TTA45 by Fluorescence Resonance Energy Transfer (FRET) assay (Supplementary Tables S1 and S2) ([47]). […] Compounds 21-38 were purchased to study their binding with TTA45 by FRET (Supplementary Table S3). […] page 4: Table S2. Stabilization of TTA45 as determined by FRET assays (continued). Compounds Structures ΔTm/°C Compounds Structures ΔTm/°C 23 10.3 25 14.6 […] OH 24 […] KCl, pH 7.0) was determined by FRET procedure, and Tm/°C were derived by their difference. The concentration of compounds 21-26 were 20 μM , and other compounds were 50 μM. FRET assay was carried out on the Real-Time PCR 3.2 machine (Analytik Jena, Germany). The total reaction volume was 20 μL with 0.5 μM of oligonucleotide labelled with FAM at the 3' end and TAMRA at 5' end in 10 mM K2HPO4/KH2PO4 (pH 7.0) containing 100 mM KCl. […] Then compounds with various concentrations were added into the DNA samples.

The test system of assay [3] is TTA45. Put plainly: CD melting, DNA stabilization. Format: binding, human. The following applies: 5 µM DNA, 20 µM compound, 10 mM Tris-HCl, 50 mM KCl, pH 7.4. An excerpt: Compounds Structures IC /µM m
The next assay deals with c-KIT1. Description: CD melting, DNA stabilization. Format: binding. The following applies: 5 µM DNA, 20 µM BMPQ-1, 10 mM Tris-HCl, 50 mM KCl, pH 7.4.
A further assay deals with A549. Description: Cell cytotoxicity assay (CCK8). It counts as cell-based, human. The following applies: Homo sapiens, A549; CCK8, 48 h treatment. Here is the method:
(§1) The cell growth effect of BMPQ-1 against different cell lines were tested via measuring the quantity of living cells using the Cell Counting Kit-8 (CCK8) (DOJINDO, Japan) according to the instruction. Cells were seeded in a 96-well plate (5 × 10^3 cells/well) and grown for 24 h for attachment. Then the cells were treated with various concentrations of BMPQ-1 and incubated at 37°C with 5% CO2 for 48 h. After incubation, the old medium was discarded followed by adding fresh medium containing 10% FBS in DMEM. Then 100 μl CCK-8 (10% in grow medium) was added into each well, and the cells were further incubated for 1 h. The optical density (OD) was detected at 450 nm by an automated microplate reader (Bio-Rad). The IC50 values were derived from the curves of the mean percentage of survival against the drug concentration. All the experiments were performed in triplicate.
(§2) A Cell Counting Kit-8 (CCK8) (DOJINDO, Japan) was employed to evaluate the cytotoxicity of BMPQ-1 on human alveolar basal epithelial cancer cell line (A549), human hepatocellular carcinoma cancer cell line (HepG2), human gastric cancer cell line (MGC-803), human colon adenocarcinoma (HT29), human normal liver Cells (HL-7702).

A further assay relates to HT29. Description: Cell cytotoxicity assay (CCK8). It counts as cell-based, human. The following applies: Homo sapiens, HT-29; CCK8, 48 h treatment. As for the experimental part: as §1, §2
Assay [4] relates to human normal liver cells (HL-7702). Description: Cell cytotoxicity assay (CCK8). It counts as cell-based. As to conditions: L02, CCK8, 48 h treatment. As for the experimental part:
as §1, §2

In a further assay the test system is tumor cell. Description: Tumor cell proliferation (summary statement). It counts as cell-based. The following applies: summary value, abstract/introduction. As for the experimental part:
as §1

The target in assay [5] is TTA45. Put plainly: smFRET analysis of TTA45 conformational ensemble. Format: binding, human. As to conditions: from high-FRET population against BMPQ-1 concentration; read-out: dissociation constant (KD). As for the experimental part:
5′- FAM and 3′-Cy5 labeled TTA45 oligonucleotides were annealed in the buffer of 10 mM Tris–HCl (pH 7.4) and 100 mM KCl, by heating to 95°C for 5 min and slowly cooling down to room temperature. smFRET data collection and analysis were performed as previously described ([43]). In brief, an A1 confocal microscope (Nikon, Japan) coupled to two picosecond pulsed diode laser heads (LDH-P-C-485B and LDH-P-C-640B, PicoQuant, Germany) and two SPCM-AQRH detectors (Excelitas, Canada) was used for fluorescence excitation and emission detection. A 60 × water immersion objective (WI 60×, NA 1.20, Nikon, Japan) was used for confocal laser microscopy, and the pinhole size was set at ∼100 μm. The laser power before the objective was set at ∼100 μW for the 485-nm laser and ∼35 μW for the 640-nm laser. […]
The smFRET measurements were performed at room temperature in pH 7.4 buffer containing 10 mM Tris–HCl, 100 mM KCl, and 0.01% (v/v) Tween 20, with additional 1 mM ascorbic acid and 1 mM methylviologen for photo bleaching and blinking minimization ([44]). […] The exact FRET efficiencies were calculated based on our calibrated parameters for the instrument and fluorophores, and the FRET efficiency distribution was analyzed with a multi-Gaussian mixture using a handwritten script.

Description for c-KIT1: CD studies were performed on a Chirascan circular dichroism spectrophotometer (Jasco, Easton, MD, USA). A quartz cuvette with a 1 mm path length was used to record the spectra over a wavelength range of 220–320 nm with a 1 nm bandwidth. All the samples were prepared in buffer containing 10 mM Tris–HCl pH 7.4, 100 mM KCl. To ensure the concentrations of G-quadruplex units to be 20 μM, multiple G-quadruplexes forming oligonucleotides with different concentrations were used (TTA (G1) 20 μM, TTA45 (G2) 10 μM, TTA69 (G3) 6.67 μM, TTA93 (G4) 5 μM, TTA117 (G5) 4 μM, TTA141 (G6) 3.33 μM). The DNA samples were heated at 95°C for 5 min and cooled down slowly to room temperature. 20, 40 and 60 μM BMPQ-1 were mixed with DNAs separately. Melting curves were measured at 295 nm and the range of temperature was 4–95°C.

As for `Cc1ccc(Cn2cc3c(-c4ccc5c(c4)OCO5)nnc-3c3cc4c(cc32)OCO4)cc1` [BMPQ-1], the ΔTm in assay [1] was determined as 4.7 °C. Further, the “ΔTm/°C, TTA45 stabilization by FRET (Table S3)” value with TTA45 [2] (20 µM compounds) was 16.09 ± 1.79 °C. The “ΔTm/°C, stabilization of TTA45 by FRET (Table S2)” value in the assay with TTA45 [2] (compounds 21-26 20 µM) came to 16.1 °C. For the same molecule, the “ΔTm (°C) TTA45” value in the assay on TTA45 [3] is 14.6 °C. Moreover, the “ΔTm (°C) c-KIT1” value in the assay with c-KIT1 came out at 6.6 °C. The IC50 is 1460 ± 160 nM in the assay on A549, 1400 ± 60 nM with HT29, 4380 ± 390 nM in [4] and about 1000 nM in the assay with tumor cell. Besides, at TTA45 [5], the Kd is 530 nM.
